Key:
[1] = molecular target: Human CB1R (Cannabanoid receptor 1) (Homo sapiens (Human), UniProt P21554); test: CB-1 in vitro cAMP (HTRF) assay in HEK-293 cells; type: cell-based; settings: HEK-293 cells stably transfected with human CB1R, 250 nM Forskolin, mean where tested more than once, read-out: CB-1 (HEK_cAMP) EC50
Source text: (§1) CB1 and CB2 receptors are Gi-coupled GPCR. Activation of CB1 and CB2 receptors results in a decrease in cAMP production. An inverse agonist of the CB1 or CB2 receptor results in the opposite effect, an increase of cAMP production. The principle of this assay is based on HTRF® technology (Homogeneous Time-Resolved Fluorescence). The method is a competitive immunoassay between native cAMP produced by cells and the cAMP labeled with the fluorophore d2. The tracer binding is quantified by a Mab anti-cAMP labeled with Eu3+TBP-NHS Cryptate (supplied as part of the assay kit). The specific signal (i.e. energy transfer) is inversely proportional to the concentration of cAMP in the standard or sample.
(§2) Human CB1R (Cannabanoid receptor 1) was stably transfected in HEK-293 cells (DiscoveRx, cat: 93-0200C1). Human CB2R (Cannabanoid receptor 2) was stably transfected in HEK-293 cells (DiscoveRx, cat: 93-0201C1). Cell cultures were maintained in media: DMEM (Invitrogen Cat#12430-054) supplemented with 10% HI FBS (Invitrogen Cat#16140-071), 1% L-glutamine (Invitrogen Cat#25030-081), 0.2 mg/ml Hygromycin B (Invitrogen Cat#10687-010), 600 μg/mL G418 (Invitrogen Cat#10131-035), and 1× Penn/Strep (Invitrogen 15140-122). After cell expansion, aliquots were cryo-stored in media containing 5% DMSO (Pierce Cat#20684).
(§3) One day prior to experiments media was warmed to 37° C. and the cryo-stored cells were thawed in a 37° C. water bath. The cells were then added to media (10× volume) and the mixture was centrifugated at 1000 RPM for 5 min. The supernate was removed and the cells were re-suspended in media. A sample of the cell suspension was evaluated on a Cedex XS automated cell counter (Innovatis Systems) to determine viable cells/ml. Additional media was added to the cells to achieve a final cell density of 4E5 cells/mL. The cells were then plated into 384 well PDL white solid bottom plates (Greiner, Cat#781945) at 20 μL per well using a Multidrop (Thermo Scientific). Cells were removed from Row P (location of cAMP standards). Two columns of cells were plated into a clear bottom 384 well PDL coated plate (Greiner, Cat#781944) to view confluence the day of the assay. The cell plates were lidded and stored for 15 minutes in a hood, then transferred to an incubator (37° C., 5% CO2, 95% humidity) overnight.
(§4) DMSO was added to all wells of 384 well V bottom polystyrene plate (Greiner, Cat#781280) except to columns 1 and 13, rows O and P and wells M13-M23 and N13-N23. Test compounds (60 μL, 10 mM) were added to Column 1 and 13 (A1 through N1 and A13 through L13). Test compounds were serially diluted 1/3 by transferring and mixing 20 μl sample with 40 μL DMSO.
(§5) DMSO (40 μL) was added to wells of 384 well V bottom polystyrene plate: O2 through O11, M14 through M23, N14 through N23, and O14 through 023. AM630 (also known as [6-iodo-2-methyl-1-[2-(4-morpholinyl)ethyl]-1H-indol-3-yl](4-methoxyphenyl)-methanone, Cayman Chemical, Cat#10006974) (60 μL, 10 mM) was added to 01; and 1-(2,4-dichlorophenyl)-7-[(4-fluorophenyl)methylene]-4,5,6,7-tetrahydro-N-1-piperidinyl-1H-indazole-3-carboxamide (60 μL, 10 mM) was added to N13. The control was serially diluted 1/3 by transferring and mixing 20 μl sample with 40 μL DMSO. This process resulted 11 doses per control, 10 mM to […].
(§6) Cells plated the day prior to the assay in clear bottom plates were viewed on an inverse microscope to ensure confluency in the range of 60-75%. […]

[2] = molecular target: Human CB2R (Cannabanoid receptor 2) (Homo sapiens (Human), UniProt P34972); test: CB-2 in vitro cAMP (HTRF) assay in HEK-293 cells; type: cell-based; settings: HEK-293 cells stably transfected with human CB2R, 250 nM Forskolin, mean where tested more than once, read-out: CB-2 (HEK_cAMP) EC50
Source text: as §1, §2, §3, §4, §5, §6

Sequence of Human CB1R (Cannabanoid receptor 1) (P21554 whole entry): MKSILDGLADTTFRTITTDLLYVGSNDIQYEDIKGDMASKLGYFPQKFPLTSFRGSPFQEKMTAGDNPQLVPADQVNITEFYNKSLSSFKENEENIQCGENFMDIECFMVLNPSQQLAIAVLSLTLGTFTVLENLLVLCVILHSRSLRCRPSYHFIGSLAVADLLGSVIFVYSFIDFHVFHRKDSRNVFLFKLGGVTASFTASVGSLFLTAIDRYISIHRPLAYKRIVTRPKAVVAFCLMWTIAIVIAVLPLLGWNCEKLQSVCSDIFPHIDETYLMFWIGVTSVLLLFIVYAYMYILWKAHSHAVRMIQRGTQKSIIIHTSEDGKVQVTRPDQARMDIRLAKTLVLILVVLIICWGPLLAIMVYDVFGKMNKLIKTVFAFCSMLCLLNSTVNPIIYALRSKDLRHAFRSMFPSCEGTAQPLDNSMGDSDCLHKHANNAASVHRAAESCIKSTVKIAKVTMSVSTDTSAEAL
Sequence of Human CB2R (Cannabanoid receptor 2) (P34972 whole entry): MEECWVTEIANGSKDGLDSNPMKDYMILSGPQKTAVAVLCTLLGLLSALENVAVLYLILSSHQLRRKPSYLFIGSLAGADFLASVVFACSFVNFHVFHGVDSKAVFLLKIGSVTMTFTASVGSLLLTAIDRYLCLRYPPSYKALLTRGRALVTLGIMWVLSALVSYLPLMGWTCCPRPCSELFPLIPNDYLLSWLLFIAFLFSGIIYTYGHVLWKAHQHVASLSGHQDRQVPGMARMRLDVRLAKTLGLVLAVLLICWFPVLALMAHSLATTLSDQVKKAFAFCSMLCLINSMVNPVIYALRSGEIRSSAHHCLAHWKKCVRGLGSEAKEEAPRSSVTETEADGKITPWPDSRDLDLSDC

SMILES | EC50 [1] [nM] | EC50 [2] [µM]
NC(=O)c1ccc(C(=O)N2CCC(c3nn(C4CC4)c4ccc(C(c5ccc(Cl)cc5)c5ccc(Cl)cc5)cc34)CC2)cc1 [Compound 104] | 7 | > 10
O=S(=O)(N1CCC(c2nn(C3CC3)c3ccc(C(c4ccc(Cl)cc4)c4ccc(Cl)cc4)cc23)CC1)C(F)(F)F [Compound 105] | 8 | > 10
O=C(O)CCS(=O)(=O)N1CCC(c2nn(C3CC3)c3ccc(C(c4ccc(Cl)cc4)c4ccc(Cl)cc4)cc23)CC1 [Compound 106] | 9200 | > 10
O=C(O)CCC(=O)N1CCC(c2nn(C3CC3)c3ccc(C(c4ccc(Cl)cc4)c4ccc(Cl)cc4)cc23)CC1 [Compound 107] | 920 | > 10
O=C(CCO)N1CCC(c2nn(C3CC3)c3ccc(C(c4ccc(Cl)cc4)c4ccc(Cl)cc4)cc23)CC1 [Compound 108] | 37 | > 10
O=C(O)CCS(=O)(=O)N1CCC(c2nn(C3CC3)c3ccc(C(c4ccc(Cl)cc4)c4ccc(Cl)cc4)cc23)CC1 [Compound 109] | 729 | > 10
NC(=O)CS(=O)(=O)N1CCC(c2nn(C3CC3)c3ccc(C(c4ccc(Cl)cc4)c4ccc(Cl)cc4)cc23)CC1 [Compound 115] | 1010 | > 10
O=C(O)c1cccc(S(=O)(=O)N2CCC(c3c4cc(C(c5ccc(Cl)cc5)c5ccc(Cl)cc5)ccc4nn3C3CC3)CC2)c1 [Compound 116, 3-(4-(5-(bis(4-chlorophenyl)methyl)-2-cyclopropyl-2H-indazol-3-yl)piperidin-1-ylsulfonyl)benzoic acid] | 5 | 7.99
O=C(O)c1ccc(S(=O)(=O)N2CCC(c3c4cc(C(c5ccc(Cl)cc5)c5ccc(Cl)cc5)ccc4nn3C3CC3)CC2)cc1 [Compound 117, 4-(4-(5-(bis(4-chlorophenyl)methyl)-2-cyclopropyl-2H-indazol-3-yl)piperidin-1-ylsulfonyl)benzoic acid] | 9 | 1.55
NC(=O)c1ccc(S(=O)(=O)N2CCC(c3c4cc(C(c5ccc(Cl)cc5)c5ccc(Cl)cc5)ccc4nn3C3CC3)CC2)cc1 [Compound 118, 4-(4-(5-(bis(4-chlorophenyl)methyl)-2-cyclopropyl-2H-indazol-3-yl)piperidin-1-ylsulfonyl)benzamide] | 4 | > 10
COc1ccc(S(=O)(=O)N2CCC(Nc3n[nH]c4ccc(C(c5ccc(Cl)cc5)c5ccc(Cl)cc5)cc34)CC2)cc1 [Compound 119] | 144 | > 10
NC(=O)c1ccc(S(=O)(=O)N2CCC(Nc3n[nH]c4ccc(C(c5ccc(Cl)cc5)c5ccc(Cl)cc5)cc34)CC2)cc1 [Compound 120] | 50 | > 10
NC(=O)c1ccccc1S(=O)(=O)N1CCC(Nc2n[nH]c3ccc(C(c4ccc(Cl)cc4)c4ccc(Cl)cc4)cc23)CC1 [Compound 121] | 375 | > 10
NC(=O)c1cccc(S(=O)(=O)N2CCC(Nc3n[nH]c4ccc(C(c5ccc(Cl)cc5)c5ccc(Cl)cc5)cc34)CC2)c1 [Compound 122] | 99 | > 10
O=C(O)c1ccccc1S(=O)(=O)N1CCC(c2c3cc(C(c4ccc(Cl)cc4)c4ccc(Cl)cc4)ccc3nn2C2CC2)CC1 [Compound 123] | 5800 | > 10
CS(=O)(=O)N1CCC(Nc2n[nH]c3ccc(C(c4ccc(Cl)cc4)c4ccc(Cl)cc4)cc23)CC1 [Compound 125] | 135 | > 10
O=C(O)c1cccc(S(=O)(=O)N2CCC(Nc3n[nH]c4ccc(C(c5ccc(Cl)cc5)c5ccc(Cl)cc5)cc34)CC2)c1 [Compound 128] | 1220 | > 10
O=C(O)c1ccc(S(=O)(=O)N2CCC(Nc3n[nH]c4ccc(C(c5ccc(Cl)cc5)c5ccc(Cl)cc5)cc34)CC2)cc1 [Compound 129] | 203 | > 10
O=S(=O)(c1ccc(O)cc1)N1CCC(Nc2n[nH]c3ccc(C(c4ccc(Cl)cc4)c4ccc(Cl)cc4)cc23)CC1 [Compound 130] | 15 | > 10
NC(=O)c1ccccc1S(=O)(=O)N1CCC(c2c3cc(C(c4ccc(Cl)cc4)c4ccc(Cl)cc4)ccc3nn2C2CC2)CC1 [Compound 139] | 202 | > 10

More lines, now with the values ahead:

EC50 [1] [nM] | EC50 [2] [µM] | SMILES
134 | > 10 | O=C(CO)N1CCC(c2c3cc(C(c4ccc(Cl)cc4)c4ccc(Cl)cc4)ccc3nn2C2CC2)CC1 [Compound 110]
3500 | > 10 | O=C(O)c1cccc(C(=O)N2CCC(c3c4cc(C(c5ccc(Cl)cc5)c5ccc(Cl)cc5)ccc4nn3C3CC3)CC2)c1 [Compound 111]
62 | > 10 | NC(=O)c1cccc(C(=O)N2CCC(c3c4cc(C(c5ccc(Cl)cc5)c5ccc(Cl)cc5)ccc4nn3C3CC3)CC2)c1 [Compound 112]
4240 | > 10 | O=C(O)c1ccc(C(=O)N2CCC(c3c4cc(C(c5ccc(Cl)cc5)c5ccc(Cl)cc5)ccc4nn3C3CC3)CC2)cc1 [Compound 113]
283 | 9.9 | NC(=O)c1ccc(C(=O)N2CCC(c3c4cc(C(c5ccc(Cl)cc5)c5ccc(Cl)cc5)ccc4nn3C3CC3)CC2)cc1 [Compound 114]
236 | > 10 | NC(=O)c1ccccc1C(=O)N1CCC(c2c3cc(C(c4ccc(Cl)cc4)c4ccc(Cl)cc4)ccc3nn2C2CC2)CC1 [Compound 124]
617 | > 10 | O=C(O)C(=O)N1CCC(c2c3cc(C(c4ccc(Cl)cc4)c4ccc(Cl)cc4)ccc3nn2C2CC2)CC1 [Compound 126]
4760 | > 10 | O=C(O)CCC(=O)N1CCC(c2c3cc(C(c4ccc(Cl)cc4)c4ccc(Cl)cc4)ccc3nn2C2CC2)CC1 [Compound 127]
9500 | > 10 | O=C(O)CS(=O)(=O)N1CCC(c2c3cc(C(c4ccc(Cl)cc4)c4ccc(Cl)cc4)ccc3nn2C2CC2)CC1 [Compound 131]
166 | > 10 | O=C(CCO)N1CCC(c2c3cc(C(c4ccc(Cl)cc4)c4ccc(Cl)cc4)ccc3nn2C2CC2)CC1 [Compound 132]
3910 | > 10 | O=C(O)CCS(=O)(=O)N1CCC(c2c3cc(C(c4ccc(Cl)cc4)c4ccc(Cl)cc4)ccc3nn2C2CC2)CC1 [Compound 133]
216 | > 10 | NC(=O)CCS(=O)(=O)N1CCC(c2c3cc(C(c4ccc(Cl)cc4)c4ccc(Cl)cc4)ccc3nn2C2CC2)CC1 [Compound 134]
166 | > 10 | O=C(O)CCC(=O)N1CCC(c2c3cc(C(c4ccc(Cl)cc4)c4ccc(Cl)cc4)ccc3nn2C2CC2)CC1 [Compound 135]
11 | > 10 | O=S(=O)(N1CCC(c2c3cc(C(c4ccc(Cl)cc4)c4ccc(Cl)cc4)ccc3nn2C2CC2)CC1)C(F)(F)F [Compound 136, 5-(bis(4-chlorophenyl)methyl)-2-cyclopropyl-3-(1-(trifluoromethylsulfonyl)piperidin-4-yl)-2H-indazole]
158 | > 10 | NC(=O)CS(=O)(=O)N1CCC(c2c3cc(C(c4ccc(Cl)cc4)c4ccc(Cl)cc4)ccc3nn2C2CC2)CC1 [Compound 137]
587 | > 10 | NC(=O)C(=O)N1CCC(c2c3cc(C(c4ccc(Cl)cc4)c4ccc(Cl)cc4)ccc3nn2C2CC2)CC1 [Compound 138]

— patent publication US9682940B2, “Indazole derivatives useful as CB-1 inverse agonists” (Janssen Pharmaceutica NV, priority 2015, dated 2017)
